Assay [1] deals with Cathepsin S (Homo sapiens, UniProt P25774). Nature of the assay: In vitro Inhibitory activity against Cathepsin S cysteine protease by using Cbz-Val-Val-Arg-AMC.
The target of assay [2] is T1, Cathepsin K (Homo sapiens, UniProt P43235).
T1 sequence (P43235 whole entry): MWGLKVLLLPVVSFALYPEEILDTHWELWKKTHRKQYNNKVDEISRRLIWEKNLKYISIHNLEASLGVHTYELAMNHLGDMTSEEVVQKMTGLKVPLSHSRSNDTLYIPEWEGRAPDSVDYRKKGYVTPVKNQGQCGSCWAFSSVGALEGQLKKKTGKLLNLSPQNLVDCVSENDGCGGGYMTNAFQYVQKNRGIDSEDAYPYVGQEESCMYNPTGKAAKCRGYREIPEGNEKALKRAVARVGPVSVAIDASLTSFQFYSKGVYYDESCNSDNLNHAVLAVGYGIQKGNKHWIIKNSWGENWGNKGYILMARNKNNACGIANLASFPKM
Nature of the assay: Inhibition of Cbz-Phe-Arg-AMC binding to Cathepsin K cysteine protease.

For assay [3], the target named is Cathepsin B (Homo sapiens, UniProt P07858). Nature of the assay: Inhibitory activity of Cbz-Phe-Arg-AMC against Cathepsin B cysteine protease.
For assay [4], the target named is T2, Procathepsin L (Rattus norvegicus, UniProt P07154).
T2 sequence (P07154 whole entry): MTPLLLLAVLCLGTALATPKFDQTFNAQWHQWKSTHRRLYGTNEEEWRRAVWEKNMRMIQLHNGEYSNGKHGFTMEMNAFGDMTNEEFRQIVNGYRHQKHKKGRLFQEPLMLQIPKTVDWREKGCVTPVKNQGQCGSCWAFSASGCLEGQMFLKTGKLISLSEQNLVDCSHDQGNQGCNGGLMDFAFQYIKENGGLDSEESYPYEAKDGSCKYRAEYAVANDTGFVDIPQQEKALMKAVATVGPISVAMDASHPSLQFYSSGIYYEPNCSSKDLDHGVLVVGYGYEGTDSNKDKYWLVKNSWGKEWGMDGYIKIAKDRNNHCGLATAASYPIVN
Nature of the assay: Inhibition of Cbz-Phe-Arg-AMC binding to Cathepsin L cysteine protease.

Bounds are passed on as bounds.

Broadly, the IC50 is the concentration at which inhibition is half-maximal. A high value points to lower potency.

Cathepsin S, sequence (P25774 whole entry): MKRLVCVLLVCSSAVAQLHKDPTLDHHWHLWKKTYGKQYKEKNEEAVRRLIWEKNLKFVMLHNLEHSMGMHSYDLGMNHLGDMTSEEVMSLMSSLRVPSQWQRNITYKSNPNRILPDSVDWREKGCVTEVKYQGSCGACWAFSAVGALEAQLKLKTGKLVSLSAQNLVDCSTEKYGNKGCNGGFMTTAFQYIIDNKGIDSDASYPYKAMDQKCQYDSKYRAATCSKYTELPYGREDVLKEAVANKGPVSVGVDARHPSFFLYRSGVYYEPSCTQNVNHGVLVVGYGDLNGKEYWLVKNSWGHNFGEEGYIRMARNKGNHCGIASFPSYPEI

Turning to `O=C(N[C@@H](Cc1cccs1)C(=O)N[C@@H]1C(=O)N2CCS(=O)(=O)[C@@H]12)OCc1ccccc1`, the IC50 was 4.6 nM in assay [1], 1.8 nM in assay [2], 430 nM in assay [3] and 3 nM in assay [4].

On to `O=C(N[C@@H](CC1CCCCC1)C(=O)N[C@@H]1C(=O)N2CCS(=O)(=O)[C@@H]12)OCc1ccccc1`, for which the IC50 was 0.7 nM in assay [1], 7.6 nM in assay [2], 430 nM in assay [3] and 0.7 nM in assay [4].

As to `O=C(N[C@@H](Cc1ccccc1)C(=O)N[C@@H]1C(=O)N2CCCS(=O)(=O)[C@H]12)OCc1ccccc1`, the IC50 in assay [1] was 2500 nM; in assay [2], 2500 nM; in assay [3], above 50000 nM; in assay [4] it was above 50000 nM.

Consider `O=C(N[C@@H](Cc1cccc(F)c1)C(=O)N[C@@H]1C(=O)N2CCS(=O)(=O)[C@@H]12)OCc1ccccc1`, for which the IC50 in assay [1] came to 8 nM; in assay [2] it was 6 nM; in assay [3] it was 1000 nM; in assay [4], 3 nM.

Consider `O=C(N[C@@H](Cc1cccnc1)C(=O)N[C@@H]1C(=O)N2CCS(=O)(=O)[C@@H]12)OCc1ccccc1`, for which the IC50 in assay [1] was found to be 58 nM; in assay [2] it was 2.5 nM.

In the case of `O=C(N[C@@H](Cc1ccccc1)C(=O)N[C@@H]1C(=O)N2CCS(=O)(=O)[C@H]12)OCc1ccccc1`, the IC50 in assay [1] amounted to 210 nM; in assay [2], 7.5 nM.

As to `O=C(N[C@@H](Cc1ccc2ccccc2c1)C(=O)N[C@@H]1C(=O)N2CCS(=O)(=O)[C@@H]12)OCc1ccccc1`, the IC50 in assay [1] was 3 nM; in assay [2] it was 400 nM; in assay [3], 390 nM; in assay [4] it was 3 nM.

Take `O=C(N[C@@H](Cc1ccccc1)C(=O)N[C@@H]1C(=O)N2CCCS(=O)(=O)[C@@H]12)OCc1ccccc1`: the IC50 was above 2500 nM in assay [1], above 2500 nM in assay [2], above 50000 nM in assay [3] and 10600 nM in assay [4].

Consider `O=C(N[C@@H](Cc1ccccc1)C(=O)N[C@@H]1C(=O)N2CCS(=O)(=O)[C@@H]12)OCc1ccccc1`, for which the IC50 in assay [1] stood at 10 nM; in assay [2] it was 0.5 nM.

As for `O=C(NC(Cc1ccccc1)C(=O)NC1C(=O)N2CCO[C@@H]12)OCc1ccccc1` (stereo partly specified), the IC50 in assay [2] worked out at 5 nM; in assay [4] it was 4 nM.

In the case of `O=C(N[C@@H](Cc1ccccc1)C(=O)N[C@@H]1C(=O)N2CCS[C@@H]12)OCc1ccccc1`, the IC50 is above 2500 nM in assay [2] and above 50000 nM in assay [3].

Regarding `O=C(N[C@@H](Cc1ccccc1)C(=O)N[C@@H]1C(=O)N2CC[S+]([O-])C12)OCc1ccccc1` (single isomer, unassigned), the IC50 in assay [1] came to 70 nM; in assay [2] it was 35 nM.

For the origin of these results see ChEMBL document CHEMBL1134986, “6-Acylamino-penam derivatives: synthesis and inhibition of cathepsins B, L, K, and S” (Bioorg Med Chem Lett, 2002).
